The text below walks through data of PubChem BioAssay (NCI).

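Each compound was tested at five concentrations against cells in 96-well plates for 48 hours. GI50 is the concentration that inhibits growth by half. TGI is the concentration that stops growth completely.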

Common to all, as to assay: NCI-60 cell line screen, 48 h
Assay [1] concerns SK-MEL-2 melanoma.
Assay [2] concerns SF-295 CNS.
For assay [3], the system named is UACC-257 melanoma.
Assay [4] has as its system TK-10 renal.
In assay [5] the test system is HOP-92 NSCLC.
The subject of assay [6] is KM12 colon.
Assay [7] deals with EKVX NSCLC.
The test system of assay [8] is K-562 leukemia.
Assay [9] relates to SK-OV-3 ovarian.
For assay [10], the system named is LOX IMVI melanoma.
In assay [11] the test system is CAKI-1 renal.
The test system of assay [12] is SN12C renal.
The subject of assay [13] is UO-31 renal.
Assay [14] concerns PC-3 prostate.
For assay [15], the system named is BT-549 breast.

Take `CCC(=O)NCC1(c2c[nH]c3ccccc23)SCCS1`: the TGI in assay [1], in assay [2], in [3], in [4], in assay [5] and in [6] was more than 100 µM each time. In addition, the TGI in assay [7], in [8], in assay [9], in assay [10], in [11] and in [12] was more than 100 µM each time.
As to `O=C(Cc1ccccc1)NN1C(=O)C(Cl)C1c1cc(Br)cc(Br)c1O` (stereo unspecified), the TGI in assay [1] is 36.6 µM; in [2], 98.7 µM; in [3], 39.4 µM; in assay [4], more than 100 µM; in assay [6], more than 100 µM; in assay [7], 68.1 µM. Besides, the TGI in assay [13] was 20.6 µM; in assay [8], 34.1 µM; in assay [9] it was 62.6 µM; in assay [10], 40 µM; in [11], 78.5 µM; in assay [12], more than 100 µM.
On to `CC(=O)C1CC2(c3ccccc3)C(=O)c3ccccc3N2O1` (stereo unspecified), for which the TGI in assay [2], in assay [3], in assay [5], in assay [7], in assay [13] and in [8] was more than 100 µM each time. Besides, the TGI in assay [9] and in assay [12] was more than 100 µM in each case.
For `CCCN(CCC)C(=O)Cc1c2n(c3ccccc13)CCCc1ccccc1-2`, the TGI in [1] was determined as 25.8 µM; in assay [2] it was 22.4 µM; in assay [3], 27 µM; in assay [4], 29.5 µM; in [5] it was 14.7 µM; in [6], 25.2 µM. For the same molecule, the TGI in assay [7] worked out at 28.5 µM; in assay [13] it was 27.2 µM; in [8], 37.4 µM; in assay [9] it was 29 µM; in [10], 29.1 µM; in assay [11], 28.4 µM. The molecule also gave a TGI in assay [12] of 29.2 µM.
Consider `CSc1ccc2c(cc1=O)C(NC(=O)c1cc(O)c(OC(=O)O)c(O)c1)CCc1cc(O)c(O)c(O)c1-2` (stereo unspecified), for which the TGI was more than 90 µM in [1]; 36.5 µM in [2]; more than 90 µM in [3]; more than 90 µM in assay [4]; 51.4 µM in assay [5]; 65.3 µM in assay [6]. In addition, the TGI in [7] was 38.8 µM; in [13] it was more than 90 µM; in assay [8] it was 42.3 µM; in assay [9], more than 90 µM; in assay [10], 24.8 µM; in assay [11], 41.9 µM. Moreover, in assay [12], the TGI was 26.7 µM.
Take `COc1cc([C@@H]2c3cc4c(cc3[C@@H](NC(=O)c3ccc(C(C)=O)cc3)C3COC(=O)[C@@H]32)OCO4)cc(OC)c1O` (stereo partly specified): the TGI in [1] is 8.03 µM; in assay [2], more than 100 µM; in assay [3], 32.2 µM; in [4], 21.8 µM; in assay [5] it was 27 µM; in [6], 5.68 µM. Moreover, the TGI in [7] is 17.6 µM; in assay [13], 17.6 µM; in assay [8] it was more than 100 µM; in assay [9], 9.46 µM; in assay [10] it was 4.68 µM; in assay [11] it was 20.3 µM. In assay [12], this molecule showed a TGI of 2.03 µM.
As to `O=S(=O)(O)c1cc(O)c2c(O)c(N=Nc3ccc(/C=C/c4ccc(N=Nc5c(S(=O)(=O)O)cc6cc(S(=O)(=O)O)cc(O)c6c5O)cc4S(=O)(=O)O)c(S(=O)(=O)O)c3)c(S(=O)(=O)O)cc2c1`, the TGI in [1], in assay [2], in assay [3], in assay [4], in assay [5] and in assay [6] was more than 100 µM throughout. Further, the TGI in assay [7], in assay [13], in [8], in [9], in assay [10] and in assay [11] was more than 100 µM in each case. Further, the TGI in assay [12] is more than 100 µM.
Take `C/C(=N\O)C(CN(C)C)C(c1ccccc1)c1c(O)c2ccccc2oc1=O` (stereo unspecified): the TGI in assay [1], in [2], in assay [3], in assay [4], in assay [5] and in assay [6] was more than 100 µM in each case. For the same molecule, the TGI in assay [7], in assay [13], in [8], in [9], in [10] and in assay [11] was more than 100 µM in each case. In addition, in assay [12], the TGI is more than 100 µM.
For `O=c1cc2oc3ccc4ccccc4c3cc-2c(=O)[nH]1`, the TGI in assay [1] stood at 31.6 µM; in assay [2], 37.1 µM; in assay [3], 30.6 µM; in assay [6], 42.7 µM; in assay [7] it was 33.8 µM; in [13], 23.5 µM. Also, the TGI in [8] was 82.1 µM; in assay [9], 34.5 µM; in assay [14] it was 22.4 µM; in [10], 21 µM; in assay [11] it was 28.8 µM; in [15], 11.2 µM.
Consider `CCN(CC)CCNC(=O)c1ccccc1Nc1c(Cl)cccc1Cl`, for which the TGI in [3] worked out at 29 µM; in assay [4], 24.8 µM; in assay [7] it was 26.6 µM; in assay [13] it was 22.2 µM; in assay [9], 30.4 µM; in assay [10] it was 24.3 µM. Moreover, the TGI in assay [12] came to 27.1 µM.
On to `CCOP(=O)(C/C(=N/NC(C)(C)C)C(=O)Nc1nc2ccc(C)cc2s1)OCC`, for which the TGI in [1], in assay [2], in assay [3], in [4], in assay [6] and in assay [7] was more than 100 µM each time. Moreover, the TGI in assay [13], in assay [8], in assay [9], in assay [10], in assay [11] and in [12] was more than 100 µM in each case.
In the case of `C/C(CC(=O)Nc1ccc(C)cc1)=N\NC(N)=S`, the TGI in assay [1], in assay [2], in [3], in [4], in [5] and in assay [6] was more than 100 µM in each case. Also, the TGI in assay [7], in assay [13], in assay [8], in assay [9] and in assay [10] was more than 100 µM throughout.
In the case of `COC(=O)C(=O)C(C(=O)C(=O)Nc1ccc([N+](=O)[O-])cc1C#N)c1nc2ccc([N+](=O)[O-])cc2[nH]c1=O` (stereo unspecified), the TGI in [1], in [2], in assay [3], in assay [4], in assay [5] and in [6] was more than 100 µM throughout. For the same molecule, the TGI in [7], in [13], in assay [8], in assay [9], in assay [10] and in [11] was more than 100 µM throughout. In [12], this molecule yielded a TGI of more than 100 µM.
In the case of `COc1cccc2c1[C@H](OC)[C@]13O[C@@]1(C2=O)[C@H](O)[C@H](C)[C@@](O)(C(=O)[C@@H]1O[C@H]1C)[C@@H]3O`, the TGI was 0.384 µM in assay [1]; 0.558 µM in assay [2]; 0.527 µM in [3]; 10.7 µM in [4]; 0.723 µM in assay [5]; more than 36.5 µM in assay [6]. Also, the TGI in assay [7] is 0.616 µM; in [13], 0.647 µM; in assay [8], more than 100 µM; in assay [9], 1.47 µM; in [10] it was 0.648 µM; in [11], 0.88 µM. Moreover, the TGI in [15] was 1.28 µM; in [12] it was 0.819 µM. For the same molecule, the GI50 in assay [12] is 48.9 nM.
`CC1(Br)C(=O)NC(=O)N([C@H]2C[C@H](O)[C@@H](CO)O2)C1N=[N+]=[N-]` (stereo partly specified): the TGI in assay [1], in assay [2], in assay [3], in assay [4], in assay [5] and in [6] was more than 100 µM throughout. For the same molecule, the TGI in [7], in [13], in assay [8], in assay [9], in [10] and in assay [11] was more than 100 µM throughout. This molecule registered a TGI in [12] of more than 100 µM.
With `CN1C(=O)c2cccc3c([N+](=O)[O-])ccc(c23)C1=O`, the TGI was found to be 24.8 µM in [1]; 28.1 µM in assay [2]; 21.6 µM in [3]; 15.6 µM in assay [4]; 19.9 µM in [5]; 18.3 µM in assay [6]. Further, the TGI in assay [7] came out at 29.4 µM; in [13] it was 26.7 µM; in assay [8], 25 µM; in assay [9], 27.9 µM; in assay [10], 18.9 µM; in assay [11] it was 5.17 µM. The molecule also displayed a TGI in assay [12] of 24.9 µM.
Consider `O=C1c2ccccc2N2OC3C4CCC(C4)C3C12c1ccccc1` (stereo unspecified), for which the TGI in assay [2], in [3], in assay [5], in assay [7], in [13] and in assay [8] was more than 100 µM in each case. Besides, the TGI in [9] and in [12] was more than 100 µM throughout.
